In US20120225093A1, “Abrogating HIV-1 Infection via Drug-Induced Reactivation of Apoptosis” (UNIVERSITY OF MEDICINE AND DENTISTRY OF NEW JERSEY, priority 2010, published 2012):

Assays:
HIV-1 = test: Acute PBMC infection model: p24 and HIV-1 RNA in supernatant; type: cell-based; details: for p24 in culture (virus production, p24 capture assay): HIV-infected PBMCs co-cultured with uninfected PBMCs, CPX 30 μM, DEF 250 μM, P2 30 μM added at 48 hr, followed to 144 hr; for HIV-1 RNA production / p24 production: isolate #990,135, compound added at 48 hr, 30 or 60 μM
Experimental: Using an institutional review board (IRB)-approved protocol, PBMCs were isolated from the blood of healthy donors and stimulated overnight with phytohemagglutinin (PHA) and human IL-2. Stimulated cells were pelleted and resuspended for culture at a final concentration of 0.5×10^6 cells/ml in PHA-free RPMI 1640 medium containing 10% fetal calf serum (v/v), 100 units/ml penicillin G, 100 μg/ml streptomycin, 2 mM […], and 3.5 ng/ml human IL-2 (Medium B). Cultures were incubated at 37° C., 5% CO2, and 95% humidity.
Using an IRB-approved protocol, two donors were recruited to generate clinical viral isolates. One (#990,135) was highly immunocompromised despite on-going combination antiretroviral therapy (cART) (CD4 count <5%; HIV RNA in plasma at log10 5.5 copies/ml). The second (#990,010) was moderately to severely immunocompromised on cART (CD4 count 14-26%; HIV RNA in plasma at log10 3.8-5.0 copies/ml). For infection, 5×10^6 uninfected stimulated PBMCs were co-cultured with 10×10^6 PBMCs from one of the HIV-infected donors in Medium B. On day 3, half of the supernatant was removed and replenished with an equal volume of fresh Medium B. On day 7, the medium was likewise replenished and 7.5×10^6 stimulated uninfected PBMCs were added. On days 10, 17, and 24, half of the supernatant was replenished. On days 14, 21, and 28, stimulated uninfected PBMCs were added. Cells were harvested when p24 reached 250 pg/ml, cryopreserved in freezing medium (90% fetal calf serum, 10% dimethyl sulfoxide), and stored in liquid nitrogen as infected PBMC stock. Cell-free supernatants were stored at −80° C.
Uninfected PBMCs were co-incubated with infected PBMC stock in 24-well microplates at 2 ml/well Medium B, at a 10:1 ratio of uninfected-to-infected cells, and a total cell number of 1×10^6. Cultures were maintained and assayed for 6 consecutive days. […] Leaving the cell layer undisturbed, half the medium in each well was replenished every day, with concurrent adjustment of compound concentration. On each day during the 6-day experiments, a set of wells was harvested: the cells were processed for determination of viability and apoptosis, and the cell-free supernatants were stored at −80° C. for p24 and viral RNA measurements. Experiments were performed at least in duplicate and repeated at least twice.
p24 core antigen in the supernatant was quantified by ELISA (Retrotek HIV-1 p24™; ZeptoMetrix Corp.; Buffalo, N.Y.). HIV-1 RNA copy number in the supernatant was determined with a PCR-based and FDA-approved assay (Amplicor HIV-1 Monitor™; Roche Diagnostics Corp.; Indianapolis, Ind.). IFN-γ and IL-10 in the supernatant were determined by cytometric bead array (Human Th1/Th2 Cytokine Kit II™; BD Biosciences Pharmingen, San Jose, Calif.).
To examine the effect of CPX and DEF on HIV-1 propagation, uninfected PBMCs from healthy donors were co-cultured with HIV-infected PBMCs and virus production was monitored by the p24 capture assay. In untreated cultures, p24 was first detected at 96 hr and increased up to 144 hr (FIG. 1C; Control). […] The profound inhibition is due, at least in part, to activation of apoptosis at later stages of infection. These concentrations are within the clinically relevant range and sufficient to block DOHH activity and eIF5A modification (see below).
To examine the antiretroviral action of CPX in a clinic-derived model, PBMCs infected with patient isolates of HIV-1 were used. Naïve freshly isolated PBMCs from a single donor were infected by co-cultivation with HIV-infected, HLA-nonidentical PBMCs at an initial uninfected/infected cell ratio of 10:1. CPX was added and cells were maintained and monitored for six days. Half of each culture supernatant was replenished daily with CPX-containing or CPX-free medium as appropriate. […]

eIF5A = eIF5A maturation in 293T cells, immunoblot with NIH-353 antibody; type: cell-based, human; details: for concentration range reducing appearance of mature eIF5A: 293T transfected with FLAG-eIF5A, 24 hr
Experimental: Rabbit NIH-353 antibody was raised against mature human eIF5A (Cracchiolo et al. Gynecol Oncol 2004, 94:217-222). Antibody against DOHH was generated by M. H. Park. Anti-eIF5A-1 monoclonal antibody (BD) was purchased from BD Biosciences. The anti-FLAG monoclonal antibody M2 and anti-actin antibody were purchased from Sigma.
Immunoprecipitation and immunoblotting experiments were carried out as described previously in Hoque et al. Mol Cell Biol 2003, 23:1688-1702.
To examine the effect of the drugs on the synthesis of modified eIF5A, 293T cells transfected with a FLAG-tagged eIF5A expression vector were simultaneously treated with CPX or DEF. FLAG-eIF5A was monitored using NIH-353 and anti-FLAG antibodies (FIG. 2A,B). The NIH-353 antibody reacts preferentially with post-translationally modified eIF5A. CPX reduced the appearance of mature eIF5A over the 3-30 μM concentration range, while DEF was effective at 200-400 μM. […] In addition to the CPX homolog Agent P2, deferoxamine (DFOX; Desferal™) was used as a control compound.

[1] = isolate #990,010, CPX 30 μM added 12 hr after inoculation, six days

Cc1c(O)c(=O)ccn1C [DEF, 3-hydroxy-1,2-dimethylpyridin-4(1H)-one]
p24 in culture (virus production, p24 capture assay) (HIV-1): reduced p24 to baseline levels
concentration range reducing appearance of mature eIF5A (eIF5A): 200 to 400 µM

Cc1ccn(O)c(=O)c1 [Agent P2, 1-hydroxy-4-methylpyridin-2[1H]-one]
p24 in culture (virus production, p24 capture assay) (HIV-1): did not impede p24 production
HIV-1 RNA production (HIV-1): did not curtail the accumulation of p24 or HIV-1 RNA
p24 production (HIV-1): did not curtail the accumulation of p24 or HIV-1 RNA
effect on appearance of mature FLAG-eIF5A (eIF5A; 293T, control compounds): little or no effect

Cc1cc(C2CCCCC2)n(O)c(=O)c1 [CPX, 6-cyclohexyl-1-hydroxy-4-methylpyridin-2[1H]-one]
p24 in culture (virus production, p24 capture assay) (HIV-1): reduced p24 to baseline levels
HIV-1 p24 (HIV-1; [1]): remained undetectable
extracellular HIV-1 RNA (HIV-1; [1]): did not increase at any time over the initial infectious dose
HIV-1 RNA production (HIV-1): inhibited the production of HIV-1 RNA
p24 production (HIV-1): completely inhibited p24 production
concentration range reducing appearance of mature eIF5A (eIF5A): 3 to 30 µM
